Source: patent US11236069B2, “KIF18A inhibitors” (AMGEN INC., priority 2018, dated 2022)

Target: Recombinant human KIF18A (1-467 His-tagged) protein (Homo sapiens (Human), UniProt Q8NI77)
Assay: KIF18A Enzyme Assay: microtubule-stimulated ATPase activity (ADP-Glo)
Conditions: read-out: KIF18A ATPase IC50; 30 nM KIF18A, 30 μg/mL pig microtubules, ATP at Km 75 μM, ADP-Glo luminescence
Source text: KIF18A Enzyme Assay: Microtubule-stimulated ATPase activity assay is used to measure KIF18A enzyme activity after treatment with compound. Compounds were 2-fold serially diluted in DMSO (Sigma Inc) over 22-point concentration range. […] The assay measures ADP formed from the ATPase reaction.

Chain of Recombinant human KIF18A (1-467 His-tagged) protein (Q8NI77 1-467): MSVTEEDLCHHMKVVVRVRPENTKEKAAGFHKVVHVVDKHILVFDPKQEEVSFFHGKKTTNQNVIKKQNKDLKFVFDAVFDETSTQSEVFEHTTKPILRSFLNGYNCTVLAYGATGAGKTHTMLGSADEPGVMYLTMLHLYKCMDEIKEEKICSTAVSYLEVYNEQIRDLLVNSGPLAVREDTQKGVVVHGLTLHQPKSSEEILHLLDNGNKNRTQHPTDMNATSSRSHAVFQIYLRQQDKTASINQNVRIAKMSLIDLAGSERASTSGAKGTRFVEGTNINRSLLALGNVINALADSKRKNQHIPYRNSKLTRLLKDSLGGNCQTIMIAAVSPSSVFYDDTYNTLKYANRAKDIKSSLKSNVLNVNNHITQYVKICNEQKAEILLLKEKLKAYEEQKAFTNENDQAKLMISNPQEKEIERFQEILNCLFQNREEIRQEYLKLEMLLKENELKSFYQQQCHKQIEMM
Chain of Recombinant human KIF18A (1-467 His-tagged) protein (P02550 whole entry partner): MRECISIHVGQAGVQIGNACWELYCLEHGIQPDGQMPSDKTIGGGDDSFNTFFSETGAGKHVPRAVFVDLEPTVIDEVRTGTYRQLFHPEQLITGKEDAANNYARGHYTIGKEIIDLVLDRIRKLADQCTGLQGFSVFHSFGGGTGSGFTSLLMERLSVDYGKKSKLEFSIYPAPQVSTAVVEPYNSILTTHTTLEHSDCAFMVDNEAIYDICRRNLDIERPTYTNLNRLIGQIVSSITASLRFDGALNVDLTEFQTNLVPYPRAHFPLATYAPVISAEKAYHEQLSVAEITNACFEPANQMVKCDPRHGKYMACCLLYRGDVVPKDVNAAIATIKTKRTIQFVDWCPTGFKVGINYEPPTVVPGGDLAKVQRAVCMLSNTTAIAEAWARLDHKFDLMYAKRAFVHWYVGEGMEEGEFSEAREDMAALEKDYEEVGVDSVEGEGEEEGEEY
Chain of Recombinant human KIF18A (1-467 His-tagged) protein (P02554 whole entry partner): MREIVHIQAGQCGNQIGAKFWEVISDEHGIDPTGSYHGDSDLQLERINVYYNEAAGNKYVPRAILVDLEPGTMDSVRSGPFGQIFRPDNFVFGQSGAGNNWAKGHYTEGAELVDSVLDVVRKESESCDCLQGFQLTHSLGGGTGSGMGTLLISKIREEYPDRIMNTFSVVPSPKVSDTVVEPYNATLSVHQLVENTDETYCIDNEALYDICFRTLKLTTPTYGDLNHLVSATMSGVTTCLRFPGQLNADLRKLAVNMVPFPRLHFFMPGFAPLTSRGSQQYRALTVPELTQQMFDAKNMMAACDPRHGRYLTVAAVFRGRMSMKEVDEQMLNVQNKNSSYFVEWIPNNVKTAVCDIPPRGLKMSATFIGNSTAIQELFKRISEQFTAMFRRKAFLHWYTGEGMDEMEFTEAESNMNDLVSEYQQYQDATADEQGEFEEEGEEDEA

IC50 [nM]	Compound
39	Cc1cc(NC(=O)c2ccc(NS(=O)(=O)CC3(O)COC3)cc2N2CCC3(CC2)CC3)nc(N2CCC(F)(F)CC2)n1 [Example 6-19, N-(2-(4,4-Difluoropiperidin-1-yl)-6-methylpyrimidin-4-yl)-4-(((3-hydroxyoxetan-3-yl)methyl)sulfonamido)-2-(6-azaspiro[2.5]octan-6-yl)benzamide]
39	Cc1cc(NC(=O)c2ccc(NS(=O)(=O)[C@@H](C)CO)cc2N2CCC3(CC2)CC3)nc(N2CCO[C@H](C)C2)n1 [Example 6-23-1, 4-(((S)-2-Hydroxy-1-methylethyl)sulfonamido)-N-(6-methyl-2-((R)-2-methylmorpholino)pyrimidin-4-yl)-2-(6-azaspiro[2.5]octan-6-yl)benzamide]
71	Cc1cc(NC(=O)c2c(F)cc(NS(=O)(=O)CCO)cc2N2CCC3(CC2)CC3)nc(N2CCC(F)(F)CC2)n1 [Example 11-58, N-(2-(4,4-Difluoropiperidin-1-yl)-6-methylpyrimidin-4-yl)-2-fluoro-4-((2-hydroxyethyl)sulfonamido)-6-(6-azaspiro[2.5]octan-6-yl)benzamide]
79	Cc1cc(NC(=O)c2ccc(NS(=O)(=O)C3CCOC3)cc2N2CCC3(CC2)CC3)nc(N2CCC(F)(F)CC2)n1 (stereo in doubt) [Example 11-73, (R)-N-(2-(4,4-Difluoropiperidin-1-yl)-6-methylpyrimidin-4-yl)-2-(6-azaspiro[2.5]octan-6-yl)-4-((tetrahydrofuran)-3 sulfonamido)benzamide]
1010	Cc1cc(NC(=O)c2ccc(NS(=O)(=O)CCO)cc2N2CCC3(CC2)CC3)nc(N2CC(O)(C3CC3)C2)n1 [Example 11-16, N-(2-(3-Cyclopropyl-3-hydroxyazetidin-1-yl)-6-methylpyrimidin-4-yl)-4-((2-hydroxyethyl)sulfonamido)-2-(6-azaspiro[2.5]octan-6-yl)benzamide]
42	Cc1cc(NC(=O)c2ccc(NS(=O)(=O)C3CCOC3)cc2N2CCC3(CC2)CC3)nc(N2CC(F)(F)C2)n1 (stereo in doubt) [Example 11-71, (R)-N-(2-(3,3-Difluoroazetidin-1-yl)-6-methylpyrimidin-4-yl)-2-(6-azaspiro[2.5]octan-6-yl)-4-((tetrahydrofuran)-3-sulfonamido)benzamide]
144	Cc1cc(NC(=O)c2cc(C)c(NS(=O)(=O)CCO)cc2N2CCC3(CC2)CC3)nc(N2CCC(F)(F)CC2)n1 [Example 6-35, N-(2-(4,4-Difluoropiperidin-1-yl)-6-methylpyrimdin-4-yl)-4-((2-hydroxyethyl)sulfonamido)-5-methyl-2-(6-azaspiro[2.5]octan-6-yl)benzamide]
78	CC[S@@](=N)(=O)c1ccc(C(=O)Nc2cc(C)nc(N3CCC(F)(F)CC3)n2)c(N2CCC3(CC2)CC3)c1 [Example 19-3, 2-(6-Azaspiro[2.5]octan-6-yl)-N-(2-(4,4-difluoro-1-pieridinyl)-6-methyl-4-pyrimidinyl)-4-(S-ethylsulfonimidoyl)benzamide]
70	Cc1cc(NC(=O)c2ccc(NS(=O)(=O)CCO)cc2N2CCC3(CC2)CC3)nc(OCCC(F)(F)F)n1 [Example 11-61, 4-((2-Hydroxyethyl)sulfonamido)-N-(6-methyl-2-(3,3,3-trifluoropropoxy)pyrimidin-4-yl)-2-(6-azaspiro[2.5]octan-6-yl)benzamide]
21	C[C@H](CO)S(=O)(=O)Nc1ccc(C(=O)Nc2ccnc(N3CCC(F)(F)CC3)n2)c(N2CCC3(CC2)CC3)c1 [Example 6-26-2, (R)-N-(2-(4,4-Difluoropiperidin-1-yl)pyrimidin-4-yl)-4-((2-hydroxy-1-methylethyl)sulfonamido)-2-(6-azaspiro[2.5]octan-6-yl)benzamide]
713	Cc1cc(NC(=O)c2ccc(NS(=O)(=O)C3(C)CC3)cc2N2CCC3(CC2)CC3)nc(N2CCC(F)(F)CC2)n1 [Example 2-8, N-(2-(4,4-Difluoropiperidin-1-yl)-6-methylpyrimidin-4-yl)-4-((1-methylcyclopropan)-1-sulfonamido)-2-(6-azaspiro[2.5]octan-6-yl)benzamide]
54	Cc1cc(NC(=O)c2ccc(NS(=O)(=O)CCO)cc2N2CCC3(CC2)CC3)c(F)c(N2CCC(F)(F)CC2)n1 [Example 11-64, N-(2-(4,4-Difluoropiperidin-1-yl)-3-fluoro-6-methylpyridin-4-yl)-4-((2-hydroxyethyl)sulfonamido)-2-(6-azaspiro[2.5]octan-6-yl)benzamide]
69	Cc1cc(NC(=O)c2ccc(S(=N)(=O)C3CC3)cc2N2CCC3(CC2)CC3)nc(N2CC(F)(F)C2)n1 (centres unmarked) [Example 19-9, 4-(Cyclopropanesulfonimidoyl)-N-(2-(3,3-difluoroazetidin-1-yl)-6-methylpyrimidin-4-yl)-2-(6-azaspiro[2.5]octan-6-yl)benzamide]
826	Cc1cc(NC(=O)c2ccc(S(=O)(=O)C3CC3)cc2N2CCC3(CC2)CC3)nc(N2CCC(F)(F)CC2)n1 [Example 14-5, 4-(Cyclopropylsulfonyl)-N-(2-(4,4-difluoropiperidin-1-yl)-6-methylpyrimidin-4-yl)-2-(6-azaspiro[2.5]octan-6-yl)benzamide]
161	C[C@@H]1CN(c2nc(NC(=O)c3ccc(NS(=O)(=O)CCO)cc3N3CCC4(CC3)CC4)cc(C(C)(C)O)n2)CCO1 [Example 6-40, (R)-4-((2-Hydroxyethyl)sulfonamido)-N-(6-(2-hydroxypropan-2-yl)-2-(2-methylmorpholino)pyrimidin-4-yl)-2-(6-azaspiro[2.5]octan-6-yl)benzamide]
86	Cc1cc(NC(=O)c2ccc(NS(=O)(=O)CCCO)cc2N2CCC3(CC2)CC3)nc(N2CCC(F)(F)CC2)n1 [Example 6-15, N-(2-(4,4-Difluoropiperidin-1-yl)-6-methylpyrimidin-4-yl)-4-((3-hydroxypropyl)sulfonamido)-2-(6-azaspiro[2.5]octan-6-yl)benzamide]
57	Cc1cc(NC(=O)c2ccc([S@@](=N)(=O)C3CC3)cc2N2CCC3(CC2)CC3)nc(N2CCC(F)(F)CC2)n1 (single isomer, unassigned) [Example 18-2, 2-(6-Azaspiro[2.5]octan-6-yl)-4-(S-cyclopropylsulfonimidoyl)-N-(2-(4,4-difluoro-1-piperidinyl)-6-methyl-4-pyrimidinyl)benzamide]
27	O=C(Nc1ccnc(OCCC(F)(F)F)n1)c1ccc(S(=O)(=O)NCCO)cc1N1CCC2(CC1)CC2 [Example 17-1, 4-(N-(2-Hydroxyethyl)sulfamoyl)-2-(6-azaspiro[2.5]octan-6-yl)-N-(2-(3,3,3-trifluoropropoxy)pyrimidin-4-yl)benzamide]
52	Cc1cc(NC(=O)c2ccc(NS(=O)(=O)C3CC3)cc2N2CCC3(CC2)CC3)nc(N2CCC(F)(F)CC2)n1 [Example 6-16, 4-(Cyclopropanesulfonamido)-N-(2-(4,4-difluoropiperidin-1-yl)-6-methylpyrimidin-4-yl)-2-(6-azaspiro[2.5]octan-6-yl)benzamide]
68	C[C@@H]1CN(c2nccc(NC(=O)c3ccc(S(=O)(=O)NC4(C)COC4)cc3N3CCC4(CC3)CC4)n2)CCO1 [Example 2-2, (R)-N-(2-(2-Methylmorpholino)pyrimidin-4-yl)-4-(N-(3-methyloxetan-3-yl)sulfamoyl)-2-(6-azaspiro[2.5]octan-6-yl)benzamide]
